This passage reports IC50 results from patent US5707998A, “Nitrogen-containing fused-heterocycle compounds” (Eisai Co., Ltd., priority 1993, dated 1998).

Counter-ions that a name gives are not always drawn.

The target of this assay is T1, cGMP-PDE prepared from porcine aorta (Sus scrofa, UniProt A0A287B475).
T1 construct: Porcine aorta was cut into small pieces; from tissue; host or cells: porcine aorta, 100,000 x g supernatant, DEAE-Toyopearl 650S fraction
Briefly: Inhibitory Activity Against cGMP-PDE Prepared from Porcine Aorta. Type of assay: biochemical. The conditions noted are these: CaM-independent cGMP-PDE fraction; 1 μM cGMP substrate; 1 mM EGTA; DMSO 4% or below. The protocol: Inhibitory Activity Against cGMP-PDE Prepared from Porcine Aorta The enzymatic activity of cGMP-PDE prepared from porcine aorta was determined by the method of Thompson et al. This determination was conducted in the presence of 1 mM EGTA by the use of 1 μM cGMP as the substrate. The compound of the present invention was added to the reaction system in a state dissolved in DMSO to determine its inhibitory activity. The final DMSO concentration of the reaction system was adjusted to 4% or below. The above cGMP-PDE was prepared as follows: Porcine aorta was cut into small pieces, followed by the addition of 10 times (by volume) as much buffer A [comprising Tris/HCl (20 mM), magnesium acetate (2 mM), dithiothreitol (1 mM), EDTA (5 mM), aprotinin (1400TIU/l),leupeptin (10 mg/l), benzamidine (1 mM) and PMSF (0.2 mM) and having a pH of 7.5]. The resulting mixture was homogenated and centrifuged at 100,000×g for one hour. The obtained supernatant was adsorbed on a column packed with DEAE-Toyopearl 650S (Tosoh, Tokyo, Japan). The resulting column was washed with buffer B [comprising Tris/HCl (50 mM), EGTA (0.1 mM), magnesium acetate (2 mM), dithiothreitol (1 mM) and PMSF (0.2 mM) and having a pH of 7.5] and thereafter subjected to gradient elution with 0.05 to 0.4M sodium chloride to give a CaM-independent cGMP-PDE fraction. The compounds of the present invention were examined for cGMP-PDE inhibitory activity by the above method and the results are given in Table 1.
Regarding `CN(C)c1ccc2nc(N3CCC(C(=O)O)CC3)nc(NCc3ccc4c(c3)OCO4)c2c1` [Example 10, 2-(4-Carboxypiperidino)-4-(3,4-methylenedioxybenzyl)amino-6-dimethylaminoquinazoline], the midpoint of inhibition, the IC50, lay at 0.0187 µM.

In the case of `CCOC(=O)C1CCN(c2nc(NCc3ccc4c(c3)OCO4)c3cc(N(C)C)ccc3n2)CC1` [Example 7, 2-(4-Ethoxycarbonylpiperidino)-4-(3,4-methylenedioxybenzyl)amino-6-dimethylaminoquinazoline], the midpoint of inhibition, the IC50, lay at 0.148 µM.

For the compound `COc1ccc(CNc2ncnc3ccc(-n4cnc(C)c4)cc23)cc1Cl` [Example 17, 4-(3-Chloro-4-methoxybenzyl)amino-6-(4-methylimidazol-1-yl)quinazoline], the midpoint of inhibition, the IC50, lay at 0.403 µM.

As for `Clc1nc(NCc2ccc3c(c2)OCO3)c2cc(N3CCCCC3)ccc2n1` [Example 4, 2-Chloro-4-(3,4-methylenedioxybenzyl)amino-6-piperidinoquinazoline], the IC50 (usually the concentration needed to halve the response being measured) amounted to 1.22 µM.

Compound `CCOC(=O)C1CCN(c2nc(NCc3ccc4c(c3)OCO4)c3cc([N+](=O)[O-])ccc3n2)CC1` [Example 8, 2-(4-Ethoxycarbonylpiperidino)-4-(3,4-methylenedioxybenzyl)amino-6-dimethylnitroquinazoline] showed an IC50 of 0.0035 µM.

Take `c1nc(NCc2ccc3c(c2)OCO3)c2cc(-n3cncn3)ccc2n1` [Example 15, 4-(3,4-Methylenedioxybenzyl)amino-6-(1,2,4-triazol-1-yl)quinazoline]: the IC50 is 0.36 µM.

The compound `O=C(O)C1CCN(c2nc(NCc3ccc4c(c3)OCO4)c3cc([N+](=O)[O-])ccc3n2)CC1` [Example 11, 2-(4-Carboxypiperidino)-4-(3,4-methylenedioxybenzyl)amino-6-nitroquinazolin] displayed a half-maximal inhibitory concentration (IC50) of 0.00076 µM.

Compound `Clc1nc(NCc2ccc3c(c2)OCO3)c2cc(-n3ccnc3Cl)ccc2n1` [Example 5, 2-Chloro-4-(3,4-methylenedioxybenzyl)amino-6-(2-chloroimidazol-1-yl)quinazoline] came in with an IC50 of 0.0334 µM.

For the compound `c1cn(-c2ccc3ncnc(NCc4ccc5c(c4)OCO5)c3c2)cn1` [Example 14, 4-(3,4-Methylenedioxybenzyl)amino-6-(imidazol-1-yl)quinazoline], the midpoint of inhibition, the IC50, lay at 0.72 µM.

As to `O=C(O)C1CCN(c2nc(NCc3ccc4c(c3)OCO4)c3cc(-c4nnn[nH]4)ccc3n2)CC1` [Example 13], 0.00729 µM corresponded to half-maximal inhibition (IC50).

In turn, `CCOC(=O)C1CCN(c2nc(NCc3ccc4c(c3)OCO4)c3cc(-n4cccn4)ccc3n2)CC1` [Example 6, 2-(4-Ethoxycarbonylpiperidino)-4-(3,4-methylenedioxybenzyl)amino-6-(pyrazol-1-yl)quinazoline hydrochloride] registered an IC50 of 0.00809 µM.

Take `O=[N+]([O-])c1ccc2nc(Cl)nc(NCc3ccc4c(c3)OCO4)c2c1` [Example 3, 2-Chloro-4-(3,4-methylenedioxybenzyl)amino-6-nitroquinazoline]: half-maximal inhibition (IC50) required 0.00527 µM.

Consider `CCOC(=O)C1CCN(c2nc(NCc3ccc4c(c3)OCO4)c3cc(N)ccc3n2)CC1` [Example 12, 2-(4-Ethoxycarbonylpiperidino)-4-(3,4-methylenedioxybenzyl)amino-6-aminoquinazoline dihydrochloride], for which half-maximal inhibition (IC50) required 1.13 µM.

`O=C(O)C1CCN(c2nc(NCc3ccc4c(c3)OCO4)c3cc(-n4cccn4)ccc3n2)CC1` [Example 9, 2-(4-Carboxypiperidino)-4-(3,4-methylenedioxybenzyl)amino-6-(pyrazol-1-yl)quinazoline] yielded a half-inhibitory concentration (IC50) of 0.00148 µM.

On to `CN(C)c1ccc2nc(Cl)nc(NCc3ccc4c(c3)OCO4)c2c1` [Example 2, 2-Chloro-4-(3,4-methylenedioxybenzyl)amino-6-dimethylaminoquinazoline], for which the midpoint of inhibition, the IC50, lay at 0.12 µM.

The compound `Clc1nc(NCc2ccc3c(c2)OCO3)c2cc(-n3cccn3)ccc2n1` [Example 1, 2-Chloro-4-(3,4-methylenedioxybenzyl)amino-6-(pyrazol-1-yl)quinazoline] returned an IC50 of 0.0099 µM.
